In one data set the target is D1 receptor (Homo sapiens (Human), UniProt P21728). The conditions noted are these: D1 receptor subtype; cited from earlier work.
The conditions of data set [1]: 2014 study, 30 psychiatric drugs tested; cited from earlier work.
The target in another data set is D4 receptor (Homo sapiens (Human), UniProt P21917). The following applies: D4 receptor subtype; cited from earlier work.
The target in a further data set is D5 receptor (Homo sapiens (Human), UniProt P21918). The following applies: D5 receptor subtype; cited from earlier work.
D5 receptor, sequence (P21918 whole entry): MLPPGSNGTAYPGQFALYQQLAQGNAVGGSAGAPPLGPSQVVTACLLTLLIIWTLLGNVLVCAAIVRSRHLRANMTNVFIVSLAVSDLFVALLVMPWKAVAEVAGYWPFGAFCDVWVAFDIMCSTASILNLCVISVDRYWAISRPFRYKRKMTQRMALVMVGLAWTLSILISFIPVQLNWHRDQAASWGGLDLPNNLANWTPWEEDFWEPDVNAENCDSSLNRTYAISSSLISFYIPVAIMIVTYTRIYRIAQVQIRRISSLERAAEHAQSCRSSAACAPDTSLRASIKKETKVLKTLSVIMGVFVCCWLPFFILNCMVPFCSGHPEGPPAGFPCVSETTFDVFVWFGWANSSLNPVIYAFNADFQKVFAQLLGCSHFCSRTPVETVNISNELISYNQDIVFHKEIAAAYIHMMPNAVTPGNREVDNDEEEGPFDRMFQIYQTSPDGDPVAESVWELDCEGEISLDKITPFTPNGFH
Another data set deals with PCP-treated rats. The data set is described as follows: Novel Object Recognition (NOR) assay, sub-chronic PCP. In kind it is in vivo, rat. The conditions noted are these: PO; for difference between novel and familiar object exploration time: 3 hours post-dose, all doses save one; for known object exploration behavior in rats treated with PCP: compared to untreated rats. Here is the method: Efficacy of Compounds 102 and 103 was evaluated in rats in a Novel Object Recognition (NOR) assay, a well-established model recapitulating cognitive and negative aspects of the PANSS scale of schizophrenia. In this assay, animals were treated for several weeks with a low dose of phencyclidine (PCP) to impair the ability of the rat to discern between novel and familiar objects. Typically rats, like humans, would spend more time exploring a novel object than a familiar one.
Rats (n=10/group) were dosed with 2 mg/kg intraperitoneal twice a day (i.p., b.i.d.) for seven days followed by 7 days drug free. […] Novel object exploration time was measured for the test subjects from a sub-chronic PCP NOR study in rats (n=10/group). The differences in exploration time between novel (Tnovel¬) and familiar (Tfamliar) objects are depicted in FIG. 1A (*: p<0.05; and **: p<0.01).

D1 receptor, sequence (P21728 whole entry): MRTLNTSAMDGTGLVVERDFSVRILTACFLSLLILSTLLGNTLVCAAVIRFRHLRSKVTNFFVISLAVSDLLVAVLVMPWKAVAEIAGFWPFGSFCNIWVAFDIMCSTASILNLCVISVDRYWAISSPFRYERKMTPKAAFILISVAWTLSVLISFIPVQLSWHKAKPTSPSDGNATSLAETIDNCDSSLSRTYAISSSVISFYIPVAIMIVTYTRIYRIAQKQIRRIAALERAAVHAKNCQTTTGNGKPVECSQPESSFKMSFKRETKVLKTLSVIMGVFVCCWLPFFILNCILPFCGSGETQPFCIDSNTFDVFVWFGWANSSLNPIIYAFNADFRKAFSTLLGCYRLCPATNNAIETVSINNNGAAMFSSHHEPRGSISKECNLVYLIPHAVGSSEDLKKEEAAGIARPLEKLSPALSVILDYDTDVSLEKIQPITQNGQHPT
D4 receptor, sequence (P21917 whole entry): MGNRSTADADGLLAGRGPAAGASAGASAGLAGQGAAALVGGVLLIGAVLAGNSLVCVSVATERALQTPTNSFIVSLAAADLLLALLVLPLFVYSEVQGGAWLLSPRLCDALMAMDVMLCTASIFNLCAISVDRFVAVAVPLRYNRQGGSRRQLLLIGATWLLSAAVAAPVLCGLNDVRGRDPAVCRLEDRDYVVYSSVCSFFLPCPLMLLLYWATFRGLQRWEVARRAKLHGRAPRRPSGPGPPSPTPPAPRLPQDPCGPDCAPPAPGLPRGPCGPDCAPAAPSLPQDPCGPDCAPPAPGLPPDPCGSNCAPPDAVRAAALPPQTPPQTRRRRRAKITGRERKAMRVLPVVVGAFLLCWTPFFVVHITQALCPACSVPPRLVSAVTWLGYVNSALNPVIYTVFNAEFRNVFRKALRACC

As for `CCN1CCCC1CNC(=O)c1cc(S(=O)(=O)CC)c(N)cc1OC` (centres unmarked) [Amisulpride, 4-amino-N-(((1-ethyl-2-pyrrolidinyl)methyl)-5-(ethylsulfonyl))-2-methoxybenzamide], the affinity entry at D1 receptor, at D4 receptor and on D5 receptor was “without any affinity” throughout. Moreover, in data set [1], the “passive diffusion across a PAMPA membrane (Pe)” value is given as “lowest of 30 psychiatric drugs tested”.

As for `CCN1CCCC1CNC(=O)c1cc(S(=O)(=O)CC)c(NC)cc1OC` (centres unmarked) [Compound 102], in the data set on PCP-treated rats, the “difference between novel and familiar object exploration time” value was “increased”; the “known object exploration behavior in rats treated with PCP” value is “able to restore known object exploration behavior in rats treated with PCP to levels similar to untreated rats”.

Consider `CCN1CCC[C@H]1CNC(=O)c1cc(S(=O)(=O)CC)c(NC)cc1OC` [Compound 103, ((S)-4-methylamino-N-((1-ethyl-2-pyrrolidinyl)methyl)-5-(ethylsulfonyl))-2-methoxybenzamide], for which, in the data set with PCP-treated rats, the “difference between novel and familiar object exploration time” value is recorded as “increased”; the “known object exploration behavior in rats treated with PCP” value is “able to restore known object exploration behavior in rats treated with PCP to levels similar to untreated rats”.

The record behind these values is US10259786B2, “Psychotropic agents and uses thereof” (LB PHARMACEUTICALS INC., priority 2016, dated 2019).
